Measured values: patent US20240158446A1, “CYCLIC COMPOUND HAVING SELECTIVE INHIBITORY ACTION ON KRAS OVER HRAS AND NRAS” (CHUGAI SEIYAKU KABUSHIKI KAISHA, priority 2021, published 2024)
Where two headings read alike, the source gives them in different places.

Assays:
[1] = system: human lung cancer strain NCI-H441;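 note: cell proliferation inhibition after four days measured by CellTiter-Glo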
[2] = biological target: GDP-bound HRAS wild-type protein (Homo sapiens, UniProt P01112); experiment: Binding to HRAS by surface plasmon resonance (SPR), Single Cycle Kinetics; settings: SPR; for HRAS/KRAS (ratio of KD value for HRAS to KD value for KRAS): GDP-bound HRAS wild-type protein vs GDP-bound KRAS wild-type protein
Chain of GDP-bound HRAS wild-type protein (P01112 whole entry): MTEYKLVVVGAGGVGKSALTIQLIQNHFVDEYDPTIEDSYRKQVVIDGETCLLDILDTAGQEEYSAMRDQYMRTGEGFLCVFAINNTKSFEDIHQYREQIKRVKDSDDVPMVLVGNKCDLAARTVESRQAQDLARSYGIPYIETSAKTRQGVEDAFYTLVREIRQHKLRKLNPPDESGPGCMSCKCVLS

[3] = biological target: GDP-bound KRAS wild-type protein (Homo sapiens, UniProt P01116); experiment: Binding to KRAS by surface plasmon resonance (SPR), Single Cycle Kinetics; settings: SPR, Single Cycle Kinetics
Chain of GDP-bound KRAS wild-type protein (P01116 whole entry): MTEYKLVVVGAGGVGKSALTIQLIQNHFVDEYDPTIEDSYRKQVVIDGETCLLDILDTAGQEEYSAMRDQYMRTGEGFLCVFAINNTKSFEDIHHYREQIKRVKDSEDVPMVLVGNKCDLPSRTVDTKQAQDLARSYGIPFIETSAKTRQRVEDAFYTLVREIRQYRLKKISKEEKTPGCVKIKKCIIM

[4] = biological target: GDP-bound NRAS wild-type protein (Homo sapiens, UniProt P01111); experiment: Binding to NRAS by surface plasmon resonance (SPR), Single Cycle Kinetics; settings: SPR; for NRAS/KRAS (ratio of KD value for NRAS to KD value for KRAS): GDP-bound NRAS wild-type protein vs GDP-bound KRAS wild-type protein
Chain of GDP-bound NRAS wild-type protein (P01111 whole entry): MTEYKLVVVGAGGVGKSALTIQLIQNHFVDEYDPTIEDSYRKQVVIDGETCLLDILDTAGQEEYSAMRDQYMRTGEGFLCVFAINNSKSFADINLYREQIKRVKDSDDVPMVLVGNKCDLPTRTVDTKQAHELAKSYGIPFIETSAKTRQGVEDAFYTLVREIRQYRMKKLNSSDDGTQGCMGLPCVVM

[5] = read-out: NCI-H441 cell proliferation inhibitory activity, 50% proliferation inhibitory concentration (IC50 value), NCI-H441, four days, CellTiter-Glo
[6] = GDP-bound KRAS wild-type protein, read-out: KRAS KD

| SMILES | IC50 [1, 5] | HRAS/KRAS (ratio of KD value for HRAS to KD value for KRAS) [2] | ratio of the KD value with respect to GDP-bound HRAS wild-type protein to the KD value with respect to KRAS [2] | Kd [3, 6] | NRAS/KRAS (ratio of KD value for NRAS to KD value for KRAS) [4] | ratio of the KD value with respect to GDP-bound NRAS wild-type protein to the KD value with respect to KRAS [4] | IC50 [1] | Kd ([3]; 1:1 binding model, read-out: KD value with respect to GDP-bound KRAS wild-type protein) |
| --- | --- | --- | --- | --- | --- | --- | --- | --- |
| CC[C@H](C)[C@@H]1NC(=O)[C@@H]2CCCCc3ccc(cc3)C[C@@H](C(=O)N(C)CC(=O)N[C@@H](CCc3ccc(C(F)(F)F)c(OC)c3)C(=O)N3C[C@H](OC(C)C)C[C@H]3C(=O)NC3(CC(C)(C)C3)C(=O)N(C)[C@@H](C3CCCC3)C(=O)N(C)[C@H](C(=O)N(C)CC)CC(=O)N2C)N2CC/C=C\C[C@@H](C2=O)N(C)C(=O)CN(C)C1=O [PP3078] | 2.3 nM | B (a compound having 3 or more and less than 10 is denoted as B) | B (a compound having 3 or more and less than 10 is denoted as B) | 0.048 nM | A (a compound having 10 or more and less than 20 is denoted as A) | A (a compound having 10 or more and less than 20 is denoted as A) |  |  |
| CC[C@H](C)[C@@H]1NC(=O)[C@@H]2CCCCc3ccc(cc3)C[C@@H](C(=O)N(C)CC(=O)N[C@@H](CCc3ccc(C(F)(F)F)c(OC)c3)C(=O)N3C[C@H](OC4CCC4)C[C@H]3C(=O)NC3(CC(C)(C)C3)C(=O)N(C)[C@@H](C3CCCC3)C(=O)N(C)[C@H](C(=O)N(C)CC)CC(=O)N2C)N2CC/C=C\C[C@@H](C2=O)N(C)C(=O)CN(C)C1=O [PP3079] | 1.8 nM | B (a compound having 3 or more and less than 10 is denoted as B) | B (a compound having 3 or more and less than 10 is denoted as B) | 0.05 nM | A (a compound having 10 or more and less than 20 is denoted as A) | A (a compound having 10 or more and less than 20 is denoted as A) | 1.8 nM |  |
| CC[C@H](C)[C@@H]1NC(=O)[C@@H]2CCCCc3ccc(cc3)C[C@@H](C(=O)N(C)CC(=O)N[C@@H](CCc3ccc(C(F)(F)F)c(OC)c3)C(=O)N3C[C@H](OC4CCCC4)C[C@H]3C(=O)NC3(CC(C)(C)C3)C(=O)N(C)[C@@H](C3CCCC3)C(=O)N(C)[C@H](C(=O)N(C)C)CC(=O)N2C)N2CC/C=C\C[C@@H](C2=O)N(C)C(=O)CN(C)C1=O [PP3080] | 4.3 nM | B (a compound having 3 or more and less than 10 is denoted as B) | B (a compound having 3 or more and less than 10 is denoted as B) | 0.037 nM | A (a compound having 10 or more and less than 20 is denoted as A) | A (a compound having 10 or more and less than 20 is denoted as A) |  |  |
| CC[C@H](C)[C@@H]1NC(=O)[C@@H]2CCCCc3ccc(cc3)C[C@@H](C(=O)N(C)CC(=O)N[C@@H](CCc3ccc(C(F)(F)F)c(OC)c3)C(=O)N3CC4(CC4)C[C@H]3C(=O)NC3(CC(C)(C)C3)C(=O)N(C)[C@@H](C3CCCC3)C(=O)N(C)[C@H](C(=O)N(C)CC)CC(=O)N2C)N2CC/C=C\C[C@@H](C2=O)N(C)C(=O)CN(C)C1=O [PP3081] | 1.9 nM | B (a compound having 3 or more and less than 10 is denoted as B) | B (a compound having 3 or more and less than 10 is denoted as B) |  | A (a compound having 10 or more and less than 20 is denoted as A) | A (a compound having 10 or more and less than 20 is denoted as A) |  | 0.068 nM |
| CC[C@H](C)[C@@H]1NC(=O)[C@@H]2CCCc3ccc(cc3)C[C@@H](C(=O)N(C)CC(=O)N[C@@H](CCc3ccc(C(F)(F)F)c(OC)c3)C(=O)N3C[C@H](OC4CCC4)C[C@H]3C(=O)NC3(CC(C)(C)C3)C(=O)N(C)[C@@H](C3CCCC3)C(=O)N(C)[C@H](C(=O)N(C)CC)CC(=O)N2C)N2CC/C=C\C[C@@H](C2=O)N(C)C(=O)CN(C)C1=O [PP3085] | 6.3 nM | B (a compound having 3 or more and less than 10 is denoted as B) | B (a compound having 3 or more and less than 10 is denoted as B) | 0.11 nM | A (a compound having 10 or more and less than 20 is denoted as A) | A (a compound having 10 or more and less than 20 is denoted as A) |  |  |
| CC[C@H](C)[C@@H]1NC(=O)[C@@H]2CCCc3ccc(cc3)C[C@@H](C(=O)N(C)CC(=O)N[C@@H](CCc3ccc(C(F)(F)F)c(OC)c3)C(=O)N3C[C@H](OC4CCCC4)C[C@H]3C(=O)NC3(CC(C)(C)C3)C(=O)N(C)[C@@H](C3CCCC3)C(=O)N(C)[C@H](C(=O)N(C)CC)CC(=O)N2C)N2CC/C=C\C[C@@H](C2=O)N(C)C(=O)CN(C)C1=O [PP3086] | 7.9 nM | B (a compound having 3 or more and less than 10 is denoted as B) | B (a compound having 3 or more and less than 10 is denoted as B) | 0.2 nM | B (a compound having 3 or more and less than 10 is denoted as B) | B (a compound having 3 or more and less than 10 is denoted as B) |  |  |
| CC[C@H](C)[C@@H]1NC(=O)[C@@H]2CCCc3ccc(cc3)C[C@@H](C(=O)N(C)CC(=O)N[C@@H](CCc3ccc(C(F)(F)F)c(OC)c3)C(=O)N3CC4(CC4)C[C@H]3C(=O)NC3(CC(C)(C)C3)C(=O)N(C)[C@@H](C3CCCC3)C(=O)N(C)[C@H](C(=O)N(C)CC)CC(=O)N2C)N2CC/C=C\C[C@@H](C2=O)N(C)C(=O)CN(C)C1=O [PP3087] | 6.9 nM | B (a compound having 3 or more and less than 10 is denoted as B) | B (a compound having 3 or more and less than 10 is denoted as B) | 0.22 nM | A (a compound having 10 or more and less than 20 is denoted as A) | A (a compound having 10 or more and less than 20 is denoted as A) |  |  |
| CCCO[C@@H]1C[C@H]2C(=O)NC3(CC(C)(C)C3)C(=O)N(C)[C@@H](C3CCCC3)C(=O)N(C)[C@H](C(=O)N(C)CC)CC(=O)N(C)[C@H]3CCCc4ccc(cc4)C[C@@H](C(=O)N(C)CC(=O)N[C@@H](CCc4ccc(C(F)(F)F)c(OC)c4)C(=O)N2C1)N1CC/C=C\C[C@@H](C1=O)N(C)C(=O)CN(C1CC1)C(=O)[C@H]([C@@H](C)CC)NC3=O [PP3088] | 15.1 nM | B (a compound having 3 or more and less than 10 is denoted as B) | B (a compound having 3 or more and less than 10 is denoted as B) | 0.34 nM | B (a compound having 3 or more and less than 10 is denoted as B) | B (a compound having 3 or more and less than 10 is denoted as B) |  |  |
| CCCO[C@@H]1C[C@H]2C(=O)NC3(CC(C)(C)C3)C(=O)N(C)[C@@H](C3CCCC3)C(=O)N(C)[C@H](C(=O)N(C)CC)CC(=O)N(C)[C@H]3CCCc4ccc(cc4)C[C@@H](C(=O)N(C)CC(=O)N[C@@H](CCc4ccc(Cl)c(Cl)c4)C(=O)N2C1)N1CC/C=C\C[C@@H](C1=O)N(C)C(=O)CN(C)C(=O)[C@H]([C@@H](C)CC)NC3=O [PP3089] | 27 nM | B (a compound having 3 or more and less than 10 is denoted as B) | B (a compound having 3 or more and less than 10 is denoted as B) | 0.33 nM | B (a compound having 3 or more and less than 10 is denoted as B) | B (a compound having 3 or more and less than 10 is denoted as B) |  |  |
| CCO[C@@H]1C[C@H]2C(=O)N(C)C3(CC(C)(C)C3)C(=O)N(C)[C@@H](C3CCCC3)C(=O)N(C)[C@H](C(=O)N(C)C)CC(=O)N(C)[C@H]3CCCCCCc4ccc(cc4)C[C@@H](C(=O)N(C)CC(=O)N[C@@H](CCc4ccc(C(F)(F)F)c(OC)c4)C(=O)N2C1)N1CC/C=C\C[C@@H](C1=O)N(C)C(=O)CN(C)C(=O)[C@H]([C@@H](C)CC)NC3=O [PP3090] | 1.3 nM | B (a compound having 3 or more and less than 10 is denoted as B) | B (a compound having 3 or more and less than 10 is denoted as B) | 0.033 nM | A (a compound having 10 or more and less than 20 is denoted as A) | A (a compound having 10 or more and less than 20 is denoted as A) |  |  |
